Source: patent US10588317B2, “Isoxazoline-substituted benzamides and analogues as insecticides” (priority 2015, dated 2020)

Legend:
Type in all cases: in vivo
Diabrotica balteata = Diabrotica balteata (corn root worm), sprayed maize sprouts; settings: 96 h, application rate 200 ppm, L2 larvae, 4 days after infestation, read-out: effect in at least one of the two categories (mortality or growth inhibition)
Procedure, shortened: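 Read-out at 4 days post-infestation: mortality and growth inhibition relative to untreated samples. Test solutions (200 ppm, from DMSO stocks) were sprayed onto agar-held maize sprouts, which after drying received 6–10 L2 larvae per well.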

Euschistus heros = Euschistus heros (neotropical brown stink bug), sprayed soybean leaves; settings: 120 h, application rate 200 ppm, N2 nymphs, 5 days after infestation, read-out: effect in at least one of the two categories (mortality or growth inhibition)
Procedure, shortened: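 Scored 5 days post-infestation versus untreated controls, for both mortality and growth inhibition: N2 nymphs placed on agar-mounted soybean leaves previously sprayed at 200 ppm with aqueous test solutions from DMSO stocks and left to dry.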

Plutella xylostella = Plutella xylostella (diamond back moth), artificial diet; settings: 120 h, application rate 200 ppm, L2 larvae, 5 days after infestation, read-out: effect in at least one of the two categories (mortality or growth inhibition)
Procedure, shortened: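 L2 larvae (10-15 per well) fed on compound-treated, dried artificial diet; test solutions diluted in water from 10'000 ppm DMSO stocks. Readout 5 days post-infestation as mortality or growth inhibition versus untreated diet, with at least 80% effect at 200 ppm as threshold.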

Thrips tabaci = Thrips tabaci (onion thrips): feeding/contact activity; settings: 144 h, application rate 200 ppm, Thrips population of mixed ages, 6 days after infestation, read-out: mortality
Method: (§1) Sunflower leaf discs were placed on agar in 24-well microtiter plates and sprayed with aqueous test solutions prepared from 10'000 ppm DMSO stock solutions. After drying the leaf discs were infested with a Thrips population of mixed ages. The samples were assessed for mortality 6 days after infestation.

Spodoptera littoralis [1] = assay: Spodoptera littoralis (Egyptian cotton leaf worm), sprayed cotton leaf discs; settings: foliar, 72 h, application rate 200 ppm, L1 larvae, 3 days after infestation, read-out: control (mortality, anti-feeding effect, growth inhibition)
Procedure, shortened: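 Five first-instar larvae placed on dried cotton leaf discs (on agar) previously sprayed with aqueous dilutions of 10'000 ppm DMSO stocks. Scored at 3 days against untreated discs for mortality, feeding inhibition and growth inhibition; any category above untreated counts as control.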

Spodoptera littoralis [2] = assay: Spodoptera littoralis (Egyptian cotton leaf worm), uptake by lettuce roots from agar; settings: 144 h, read-out: effect in at least one of the three categories (mortality, anti-feeding, or growth inhibition); for percent effect (mortality, anti-feeding or growth inhibition) at 12.5 ppm: test rate 12.5 ppm, eggs, 6 days after infestation
Description: Test compounds were applied by pipette from 10'000 ppm DMSO stock solutions into 24-well plates and mixed with agar. Lettuce seeds were placed onto the agar and the multi well plate was closed by another plate which contained also agar. After 7 days the compound was absorbed by the roots and the lettuce grew into the lid plate. The lettuce leaves were then cut off into the lid plate. Spodoptera eggs were pipetted through a plastic stencil onto a humid gel blotting paper and the lid plate was closed with it. The samples were assessed for mortality, anti-feedant effect and growth inhibition in comparison to untreated samples 6 days after infestation.
The following compounds gave an effect of at least 80% in at least one of the three categories (mortality, anti-feeding, or growth inhibition) at a test rate of 12.5 ppm: […]

Myzus persicae = Myzus persicae (green peach aphid): feeding/contact activity; settings: 144 h, application rate 200 ppm, aphid population of mixed ages, 6 days after infestation, read-out: mortality
Method: Sunflower leaf discs were placed onto agar in a 24-well microtiter plate and sprayed with aqueous test solutions prepared from 10'000 ppm DMSO stock solutions. After drying, the leaf discs were infested with an aphid population of mixed ages. The samples were assessed for mortality 6 days after infestation.

Tetranychus urticae = Tetranychus urticae (two-spotted spider mite): feeding/contact activity; settings: 192 h, application rate 200 ppm, mixed population (mobile stages), 8 days after infestation, read-out: mortality
Method: as §1, with “Bean” for “Sunflower”, “discs” for “discs were placed”, “were” for “and”, “mite” for “Thrips”, “on mixed population (mobile stages) 8” for “6”

Cc1cc(C2=NO[C@@](c3cc(Cl)c(F)c(Cl)c3)(C(F)(F)F)C2)ccc1C(=O)N[C@@H]1CON(S(C)(=O)=O)C1 (single isomer, unassigned) [Compound A12]
≥ 80%: percent effect (mortality or growth inhibition) at 200 ppm (Diabrotica balteata) | percent effect (mortality or growth inhibition) at 200 ppm (Euschistus heros) | percent effect (mortality or growth inhibition) at 200 ppm (Plutella xylostella) | mortality at 200 ppm (Thrips tabaci) | mortality at 200 ppm (Spodoptera littoralis [1]) | percent control (mortality, anti-feedant effect or growth inhibition) at 12.5 ppm (Spodoptera littoralis [2]) | mortality at 200 ppm (Myzus persicae) | mortality at 200 ppm (Tetranychus urticae)

Cc1cc(C2=NO[C@@](c3cc(Cl)c(F)c(Cl)c3)(C(F)(F)F)C2)ccc1C(=O)N[C@H]1CON(S(C)(=O)=O)C1 (single isomer, unassigned) [Compound A13]
≥ 80%: percent effect (mortality or growth inhibition) at 200 ppm (Diabrotica balteata) | percent effect (mortality or growth inhibition) at 200 ppm (Euschistus heros) | percent effect (mortality or growth inhibition) at 200 ppm (Plutella xylostella) | mortality at 200 ppm (Thrips tabaci) | mortality at 200 ppm (Spodoptera littoralis [1]) | percent control (mortality, anti-feedant effect or growth inhibition) at 12.5 ppm (Spodoptera littoralis [2]) | mortality at 200 ppm (Myzus persicae) | mortality at 200 ppm (Tetranychus urticae)

Cc1cc(C2=NO[C@@](c3cc(Cl)c(F)c(Cl)c3)(C(F)(F)F)C2)ccc1C(=O)N[C@@H]1CON(S(=O)(=O)N(C)C)C1 (single isomer, unassigned) [Compound A34]
≥ 80%: percent effect (mortality or growth inhibition) at 200 ppm (Diabrotica balteata) | percent effect (mortality or growth inhibition) at 200 ppm (Euschistus heros) | percent effect (mortality or growth inhibition) at 200 ppm (Plutella xylostella) | mortality at 200 ppm (Thrips tabaci) | mortality at 200 ppm (Spodoptera littoralis [1]) | percent control (mortality, anti-feedant effect or growth inhibition) at 12.5 ppm (Spodoptera littoralis [2]) | mortality at 200 ppm (Myzus persicae) | mortality at 200 ppm (Tetranychus urticae)

Cc1cc(C2=NO[C@@](c3cc(Br)cc(C(F)(F)F)c3)(C(F)(F)F)C2)ccc1C(=O)NC1CON(S(C)(=O)=O)C1 (stereo partly shown) [Compound A16]
≥ 80%: percent effect (mortality or growth inhibition) at 200 ppm (Diabrotica balteata) | percent effect (mortality or growth inhibition) at 200 ppm (Plutella xylostella) | mortality at 200 ppm (Thrips tabaci) | mortality at 200 ppm (Spodoptera littoralis [1]) | percent effect (mortality, anti-feeding or growth inhibition) at 12.5 ppm (Spodoptera littoralis [2]) | mortality at 200 ppm (Myzus persicae) | mortality at 200 ppm (Tetranychus urticae)

CN(C)S(=O)(=O)N1CC(NC(=O)c2ccc(C3=NO[C@@](c4cc(Cl)c(F)c(Cl)c4)(C(F)(F)F)C3)cc2Cl)CO1 (stereo partly shown) [Compound A21]
≥ 80%: percent effect (mortality or growth inhibition) at 200 ppm (Diabrotica balteata) | percent effect (mortality or growth inhibition) at 200 ppm (Plutella xylostella) | mortality at 200 ppm (Thrips tabaci) | mortality at 200 ppm (Spodoptera littoralis [1]) | percent control (mortality, anti-feedant effect or growth inhibition) at 12.5 ppm (Spodoptera littoralis [2]) | mortality at 200 ppm (Myzus persicae) | mortality at 200 ppm (Tetranychus urticae)

Cc1cc(C2=NO[C@@](c3cc(Cl)cc(C(F)(F)F)c3)(C(F)(F)F)C2)ccc1C(=O)NC1CON(S(=O)(=O)N(C)C)C1 (stereo partly shown) [Compound A22]
≥ 80%: percent effect (mortality or growth inhibition) at 200 ppm (Diabrotica balteata) | percent effect (mortality or growth inhibition) at 200 ppm (Plutella xylostella) | mortality at 200 ppm (Thrips tabaci) | mortality at 200 ppm (Spodoptera littoralis [1]) | percent control (mortality, anti-feedant effect or growth inhibition) at 12.5 ppm (Spodoptera littoralis [2]) | mortality at 200 ppm (Myzus persicae) | mortality at 200 ppm (Tetranychus urticae)

Cc1cc(C2=NO[C@@](c3cc(Br)cc(C(F)(F)F)c3)(C(F)(F)F)C2)ccc1C(=O)NC1CON(S(=O)(=O)N(C)C)C1 (stereo partly shown) [Compound A23]
≥ 80%: percent effect (mortality or growth inhibition) at 200 ppm (Diabrotica balteata) | percent effect (mortality or growth inhibition) at 200 ppm (Plutella xylostella) | mortality at 200 ppm (Thrips tabaci) | mortality at 200 ppm (Spodoptera littoralis [1]) | percent effect (mortality, anti-feeding or growth inhibition) at 12.5 ppm (Spodoptera littoralis [2]) | mortality at 200 ppm (Myzus persicae) | mortality at 200 ppm (Tetranychus urticae)

O=C(NC1CON(S(=O)(=O)C2CC2)C1)c1ccc(C2=NO[C@@](c3cc(Cl)c(F)c(Cl)c3)(C(F)(F)F)C2)cc1Cl (stereo partly drawn) [Compound A24, 2-chloro-N-(2-cyclopropylsulfonylisoxazolidin-4-yl)-4-[(5S)-5-(3,5-dichloro-4-fluoro-phenyl)-5-(trifluoromethyl)-4H-isoxazol-3-yl]benzamide]
≥ 80%: percent effect (mortality or growth inhibition) at 200 ppm (Diabrotica balteata) | percent effect (mortality or growth inhibition) at 200 ppm (Plutella xylostella) | mortality at 200 ppm (Thrips tabaci) | mortality at 200 ppm (Spodoptera littoralis [1]) | percent control (mortality, anti-feedant effect or growth inhibition) at 12.5 ppm (Spodoptera littoralis [2]) | mortality at 200 ppm (Myzus persicae) | mortality at 200 ppm (Tetranychus urticae)

CCS(=O)(=O)N1CC(NC(=O)c2ccc(C3=NO[C@@](c4cc(Cl)c(F)c(Cl)c4)(C(F)(F)F)C3)cc2Cl)CO1 (stereo partly drawn) [Compound A25, 2-chloro-4-[(5S)-5-(3,5-dichloro-4-fluoro-phenyl)-5-(trifluoromethyl)-4H-isoxazol-3-yl]-N-(2-ethylsulfonylisoxazolidin-4-yl)benzamide]
≥ 80%: percent effect (mortality or growth inhibition) at 200 ppm (Diabrotica balteata) | percent effect (mortality or growth inhibition) at 200 ppm (Plutella xylostella) | mortality at 200 ppm (Thrips tabaci) | mortality at 200 ppm (Spodoptera littoralis [1]) | percent control (mortality, anti-feedant effect or growth inhibition) at 12.5 ppm (Spodoptera littoralis [2]) | mortality at 200 ppm (Myzus persicae) | mortality at 200 ppm (Tetranychus urticae)

CCS(=O)(=O)N1CC(NC(=O)c2ccc(C3=NO[C@@](c4cc(Cl)c(Cl)c(Cl)c4)(C(F)(F)F)C3)cc2Cl)CO1 (stereo partly drawn) [Compound A28, 2-chloro-N-(2-ethylsulfonylisoxazolidin-4-yl)-4-[(5S)-5-(3,4,5-trichlorophenyl)-5-(trifluoromethyl)-4H-isoxazol-3-yl]benzamide]
≥ 80%: percent effect (mortality or growth inhibition) at 200 ppm (Diabrotica balteata) | percent effect (mortality or growth inhibition) at 200 ppm (Plutella xylostella) | mortality at 200 ppm (Thrips tabaci) | mortality at 200 ppm (Spodoptera littoralis [1]) | percent control (mortality, anti-feedant effect or growth inhibition) at 12.5 ppm (Spodoptera littoralis [2]) | mortality at 200 ppm (Myzus persicae) | mortality at 200 ppm (Tetranychus urticae)

O=C(NC1CON(S(=O)(=O)C2CC2)C1)c1ccc(C2=NO[C@@](c3cc(Cl)c(Cl)c(Cl)c3)(C(F)(F)F)C2)cc1Cl (stereo partly drawn) [Compound A30, 2-chloro-N-(2-cyclopropylsulfonylisoxazolidin-4-yl)-4-[(5S)-5-(3,4,5-trichlorophenyl)-5-(trifluoromethyl)-4H-isoxazol-3-yl]benzamide]
≥ 80%: percent effect (mortality or growth inhibition) at 200 ppm (Diabrotica balteata) | percent effect (mortality or growth inhibition) at 200 ppm (Plutella xylostella) | mortality at 200 ppm (Thrips tabaci) | mortality at 200 ppm (Spodoptera littoralis [1]) | percent control (mortality, anti-feedant effect or growth inhibition) at 12.5 ppm (Spodoptera littoralis [2]) | mortality at 200 ppm (Myzus persicae) | mortality at 200 ppm (Tetranychus urticae)

Cc1cc(C2=NO[C@@](c3cc(Cl)c(Cl)c(Cl)c3)(C(F)(F)F)C2)ccc1C(=O)NC1CON(S(=O)(=O)N(C)C)C1 (stereo partly drawn) [Compound A31, N-[2-(dimethylsulfamoyl)isoxazolidin-4-yl]-2-methyl-4-[(5S)-5-(3,4,5-trichlorophenyl)-5-(trifluoromethyl)-4H-isoxazol-3-yl]benzamide]
≥ 80%: percent effect (mortality or growth inhibition) at 200 ppm (Diabrotica balteata) | percent effect (mortality or growth inhibition) at 200 ppm (Plutella xylostella) | mortality at 200 ppm (Thrips tabaci) | mortality at 200 ppm (Spodoptera littoralis [1]) | percent control (mortality, anti-feedant effect or growth inhibition) at 12.5 ppm (Spodoptera littoralis [2]) | mortality at 200 ppm (Myzus persicae) | mortality at 200 ppm (Tetranychus urticae)

CN(C)S(=O)(=O)N1CC(NC(=O)c2ccc(C3=NO[C@@](c4cc(Cl)c(Cl)c(Cl)c4)(C(F)(F)F)C3)cc2Cl)CO1 (stereo partly drawn) [Compound A32, 2-chloro-N-[2-(dimethylsulfamoyl)isoxazolidin-4-yl]-4-[(5S)-5-(3,4,5-trichlorophenyl)-5-(trifluoromethyl)-4H-isoxazol-3-yl]benzamide]
≥ 80%: percent effect (mortality or growth inhibition) at 200 ppm (Diabrotica balteata) | percent effect (mortality or growth inhibition) at 200 ppm (Plutella xylostella) | mortality at 200 ppm (Thrips tabaci) | mortality at 200 ppm (Spodoptera littoralis [1]) | percent control (mortality, anti-feedant effect or growth inhibition) at 12.5 ppm (Spodoptera littoralis [2]) | mortality at 200 ppm (Myzus persicae) | mortality at 200 ppm (Tetranychus urticae)
